From PMC5715595 (British Journal of Pharmacology, 2017)
Where two headings read alike, the source gives them in different places.

Columns and labels:
KV4.3 = molecular target: T1, KV4.3 (Homo sapiens, UniProt Q9UK17); test: Whole-cell patch clamp on KV4.3 (Ito); assay type: cell-based
T1 construct: expressed in transfected cells
T1 sequence (Q9UK17 1-655): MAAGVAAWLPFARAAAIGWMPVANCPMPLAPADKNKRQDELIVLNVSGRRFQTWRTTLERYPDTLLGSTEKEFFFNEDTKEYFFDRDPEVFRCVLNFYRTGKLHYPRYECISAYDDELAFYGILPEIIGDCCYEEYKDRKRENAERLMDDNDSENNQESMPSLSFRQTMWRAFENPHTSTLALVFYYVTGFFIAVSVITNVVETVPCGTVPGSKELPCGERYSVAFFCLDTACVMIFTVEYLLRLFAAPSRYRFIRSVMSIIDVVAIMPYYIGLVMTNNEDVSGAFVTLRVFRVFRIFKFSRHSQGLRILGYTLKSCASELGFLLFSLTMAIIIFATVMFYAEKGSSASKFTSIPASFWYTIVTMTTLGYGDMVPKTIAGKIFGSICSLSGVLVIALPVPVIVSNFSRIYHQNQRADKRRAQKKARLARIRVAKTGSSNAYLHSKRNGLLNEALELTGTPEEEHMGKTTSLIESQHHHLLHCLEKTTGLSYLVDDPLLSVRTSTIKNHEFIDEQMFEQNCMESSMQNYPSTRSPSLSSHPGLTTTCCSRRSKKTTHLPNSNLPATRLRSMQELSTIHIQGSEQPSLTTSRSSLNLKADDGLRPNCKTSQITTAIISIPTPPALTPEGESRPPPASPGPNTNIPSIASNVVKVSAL
Procedure: and CiPA Initiative Studies
=============================================================
In vitro studies on other ion channels […]
through NaV1.5, KV4.3, KV7.1/mink, Kir2.1, KV1.5, CaV1.2 and CaV3.2 channels.
35-mm dish culture in the conditions mentioned in standard cell culture conditions. Experiments were performed with a cell density enabling isolated cells for patch clamping. Cells were continuously superfused with extracellular medium (1-2 mL∙minute-1) at room temperature.
D-glucose 10, HEPES 10 and the final pH adjusted to 7.4±0.02 with NaOH for recording NaV1.5, KV4.3, KV7.1/mink, Kir2.1, KV1.5 and CaV3.2 currents. It was (in mM): NaCl 110, KCl 4, BaCl2 20, MgCl2 1, D-glucose 20, HEPES 10 and the final pH adjusted to 7.4 ± 0.02 with NaOH for recording the CaV1.2 current. Compositions of the intracellular solution to fill the pipette are […]
Composition of intracellular solutions used to fill pipette to record currents through NaV1.5, KV4.3, KV7.1/mink, Kir2.1, KV1.5, CaV1.2 and CaV3.2 channels
Solution to fill the pipette (mM)
Creatine-phospho kinase 50 U∙mL-1
After formation of a Gigaohm seal between the patch electrodes and individual cells (pipette resistance range: 2.0 MΩ - 7.0 MΩ; seal resistance range: > 1 GΩ) the cell membrane across the pipette tip was ruptured to assure electrical access to the cell interior (whole-cell patch-configuration). In case the quality of the seal was poor, the process of seal formation was repeated with a different cell and a new pipette. As soon as a stable seal was established outward tail currents were measured upon pulses described in the Table S2. If current density was judged to be too low for measurement, another cell was recorded. […]
voltage stimulation protocol indicated in the next table continuously run until the steady-state level of block was reached.
Stimulation conditions used to record currents through NaV1.5, KV4.3, KV7.1/mink, Kir2.1, KV1.5, CaV1.2 and CaV3.2 channels
Ion channel Holding potential Pulse / duration Frequency Reference compound […]
(resting / fast / slow sweeps at one (10 mM) inactivated concentration)

anaesthetized rabbits = test system: anaesthetized rabbits
Procedure: All the other experimental groups were 100% female. Animals were anaesthetized with sodium pentobarbital (45–60 mg·kg^−1 i.v.), maintained on a heated pad and mechanically ventilated with room air. […] A fluid‐filled catheter was inserted into the carotid artery to measure systemic arterial blood pressure and for blood sampling. A venous catheter was implanted into the jugular vein for infusion of drugs. Standard surface ECG leads I, II and III were monitored continuously to measure ECG intervals and the occurrence of ventricular tachyarrhythmia. Measurements of arterial blood pressures were calculated over 30 s duration at baseline and every 5 min. […] Then, for all determinations, the means of 10–30 consecutive sinus beats were automatically calculated at each time point (i.e. at the end of the stabilization period and then every 5 until 60 min after starting drug infusion) or until the occurrence of premature ventricular beats. Parameters recorded were systolic, diastolic and mean arterial blood pressure (mmHg), heart rate (beats·min^‐1 calculated from RR interval) as well as PR, QRS and QT/QTU intervals (ms), amplitudes of T‐wave and U‐wave (mV) and rhythm disturbances retrieved from ECG signals. […] Arrhythmia were scored according to the following scale: 0 being no arrhythmia, 1 being premature beats, 2 being auriculo‐ventricular blocks, 3 being ventricular tachycardia and 4 being TdP; and scores correspond to the average of maximal life‐threatening arrhythmias recorded during the experiment. […] Haemodynamic and ECG recordings were monitored continuously over 60 min following the start of infusion.

in vivo = test: in vivo; design: species or system rabbit; settings: female, rabbit, in vivo, iv, read-out: free drug concentration
Procedure: (§1) All the other experimental groups were 100% female.
(§2) The anaesthetized methoxamine‐sensitized rabbit model of TdP is frequently used to study torsadogenic potential of drugs (Carlsson et al., 1990). Briefly, female animals were pre‐sensitized with i.v. infusion of methoxamine, an α1‐adrenoceptor agonist, delivered at 15 μg·kg^−1·min^−1 (6 mL·h^−1) over 70 min.

[1] = test system: methoxamine‐sensitized rabbits; test: in vivo; design: species or system rabbit; settings: pitolisant alone, 50 and 150 μg·kg^−1·min^−1 over 1 h
Procedure: as §1, §2

[2] = cumulative i.v. infusion 1, 3.3 and 10 mg·kg^−1 in successive 20 min steps

Cl.Clc1ccc(CCCOCCCN2CCCCC2)cc1 [pitolisant, 1‐{3‐[3‐(4‐chlorophenyl)propoxy]propyl}piperidine, hydrochloride]
IC50 (KV4.3; KV4.3 Ito, Hill curve fit with Hill coefficient of one, read-out: Fitted IC50): 11.4 µM | IC50 (KV4.3; Pitolisant IC50, KV4.3, Ito): ~10 µM | QTc interval (ms) (mean ± SEM) (anaesthetized rabbits; 1 mg·kg^−1 infused over 1 h, 10 min into infusion): 154 ± 2 ms | QTc interval (ms) (mean ± SEM) (anaesthetized rabbits; 1 mg·kg^−1 infused over 1 h, 20 min into infusion): 156 ± 2 ms | QTc interval (ms) (mean ± SEM) (anaesthetized rabbits; 1 mg·kg^−1 infused over 1 h, 30 min into infusion): 156 ± 2 ms | QTc interval (ms) (mean ± SEM) (anaesthetized rabbits; 1 mg·kg^−1 infused over 1 h, 40 min into infusion): 156 ± 2 ms | QTc interval (ms) (mean ± SEM) (anaesthetized rabbits; 1 mg·kg^−1 infused over 1 h, 50 min into infusion): 157 ± 2 ms | QTc interval (ms) (mean ± SEM) (anaesthetized rabbits; 1 mg·kg^−1 infused over 1 h, 60 min into infusion): 157 ± 3 ms | QTc interval (ms) (mean ± SEM) (anaesthetized rabbits; 1 mg·kg^−1 infused over 1 h, baseline): 152 ± 3 ms | QTc interval (ms) (mean ± SEM) (anaesthetized rabbits; 10 mg·kg^−1 dose range (successively over 20 min at 1, 3.3 and 10 mg·kg^−1), 10 min into infusion): 148 ± 3 ms | QTc interval (ms) (mean ± SEM) (anaesthetized rabbits; 10 mg·kg^−1 dose range (successively over 20 min at 1, 3.3 and 10 mg·kg^−1), 20 min into infusion): 149 ± 2 ms | QTc interval (ms) (mean ± SEM) (anaesthetized rabbits; 10 mg·kg^−1 dose range (successively over 20 min at 1, 3.3 and 10 mg·kg^−1), 30 min into infusion): 151 ± 2 ms | QTc interval (ms) (mean ± SEM) (anaesthetized rabbits; 10 mg·kg^−1 dose range (successively over 20 min at 1, 3.3 and 10 mg·kg^−1), 40 min into infusion): 151 ± 1 ms | QTc interval (ms) (mean ± SEM) (anaesthetized rabbits; 10 mg·kg^−1 dose range (successively over 20 min at 1, 3.3 and 10 mg·kg^−1), 50 min into infusion): 148 ± 4 ms | QTc interval (ms) (mean ± SEM) (anaesthetized rabbits; 10 mg·kg^−1 dose range (successively over 20 min at 1, 3.3 and 10 mg·kg^−1), 60 min into infusion): 147 ± 2 ms | QTc interval (ms) (mean ± SEM) (anaesthetized rabbits; 10 mg·kg^−1 dose range (successively over 20 min at 1, 3.3 and 10 mg·kg^−1), baseline): 144 ± 4 ms | free drug concentration (anaesthetized rabbits; cumulative i.v. infusion 1, 3.3 and 10 mg·kg^−1, from total 13.8 μM): ~ 0.55 μM | change in QTc interval vs. baseline (anaesthetized rabbits; [2]): 2 ± 1% | decrease in heart rate (anaesthetized rabbits; [2]): 17 ± 4% | maximal total drug exposure (anaesthetized rabbits; [2]): 4140 ± 450 ng/mL | total drug concentration (anaesthetized rabbits; [2]): 13.8 ± 1.5 µM | effect on ventricular premature beats, ventricular tachycardia and TdP induced by clofilium (1 mg·kg^−1) (anaesthetized rabbits; pitolisant 10 mg·kg^−1): abolished | change in QTc interval (anaesthetized rabbits; pitolisant single dose 1 mg·kg^−1 i.v. over 60 min): +3 ± 1% | ventricular arrhythmias (anaesthetized rabbits; up to 10 mg·kg^−1 by i.v. slow infusion): never observed | concentration at 1 h (in vivo; after 50 μg·kg^−1·min^−1 1 h i.v. infusion): ~140 nM | concentration at 1 h (in vivo; after 150 μg·kg^−1·min^−1 1 h i.v. infusion): ~450 nM | effect on QTc interval [1]: devoid of any effect on QTc interval | pro-arrhythmic effect [1]: lacked any pro‐arrhythmic effect
